{"source": "ChEMBL document CHEMBL1201862", "about": "“PubChem BioAssay data set” (2004)", "experiment_in_all_cases": "inhibition of tumour cell growth, NCI panel, 48 h", "key": {"ACHN": {"system": "ACHN"}, "SF-539": {"system": "SF-539"}, "HCC 2998": {"system": "HCC 2998"}, "IGROV-1": {"system": "IGROV-1"}, "SF-295": {"system": "SF-295"}, "PC-3": {"system": "PC-3"}, "BT-549": {"system": "BT-549"}, "SNB-19": {"system": "SNB-19"}, "NCI-H23": {"system": "NCI-H23"}, "MDA-MB-435": {"system": "MDA-MB-435"}, "HCT-116": {"system": "HCT-116"}, "K562": {"system": "K562"}, "MOLT-4": {"system": "MOLT-4"}, "LOX IMVI": {"system": "LOX IMVI"}, "M14": {"system": "M14"}, "SK-MEL-5": {"system": "SK-MEL-5"}, "MCF7": {"system": "MCF7"}, "SNB-75": {"system": "SNB-75"}, "A498": {"system": "A498"}, "OVCAR-5": {"system": "OVCAR-5"}, "HCT-15": {"system": "HCT-15"}, "OVCAR-3": {"system": "OVCAR-3"}, "SK-MEL-28": {"system": "SK-MEL-28"}, "UACC-62": {"system": "UACC-62"}, "TK-10": {"system": "TK-10"}, "786-0": {"system": "786-0"}, "Malme-3M": {"system": "Malme-3M"}, "COLO 205": {"system": "COLO 205"}, "MDA-N": {"system": "MDA-N"}, "T47D": {"system": "T47D"}, "NCI/ADR-RES": {"system": "NCI/ADR-RES"}, "HT-29": {"system": "HT-29"}, "CAKI-1": {"system": "CAKI-1"}, "RPMI-8226": {"system": "RPMI-8226"}, "SF-268": {"system": "SF-268"}, "A549": {"system": "A549"}, "KM12": {"system": "KM12"}, "SK-MEL-2": {"system": "SK-MEL-2"}, "RXF 393": {"system": "RXF 393"}, "UACC-257": {"system": "UACC-257"}, "SK-OV-3": {"system": "SK-OV-3"}, "SN12C": {"system": "SN12C"}, "CCRF-CEM": {"system": "CCRF-CEM"}, "NCI-H226": {"system": "NCI-H226"}, "DU-145": {"system": "DU-145"}, "U-251": {"system": "U-251"}, "NCI-H460": {"system": "NCI-H460"}, "MDA-MB-231": {"system": "MDA-MB-231"}, "EKVX": {"system": "EKVX"}, "HOP-62": {"system": "HOP-62"}, "OVCAR-8": {"system": "OVCAR-8"}, "SW-620": {"system": "SW-620"}, "OVCAR-4": {"system": "OVCAR-4"}, "HL-60": {"system": "HL-60"}, "UO-31": {"system": "UO-31"}}, "note": "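Exposure lasted 48 hours, with cells grown in 96-well plates and compounds tested at five concentrations. At the GI50, growth is halved.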 Activity calls are given as the source filed them. Rule as the data show it: active = GI50 up to about 1.1 µM and inactive = higher."}
{"smiles": "COc1ccccc1NC(=S)Nc1cc(C)cc(C)n1", "values": [{"measurement": "GI50", "setting": "ACHN", "result": "> 100 µM (inactive)"}, {"measurement": "GI50", "setting": "SF-539", "result": "> 100 µM (inactive)"}, {"measurement": "GI50", "setting": "HCC 2998", "result": "> 100 µM (inactive)"}, {"measurement": "GI50", "setting": "IGROV-1", "result": "> 100 µM (inactive)"}, {"measurement": "GI50", "setting": "SF-295", "result": "> 100 µM (inactive)"}, {"measurement": "GI50", "setting": "PC-3", "result": "> 89.9 µM (inactive)"}, {"measurement": "GI50", "setting": "BT-549", "result": "> 100 µM (inactive)"}, {"measurement": "GI50", "setting": "SNB-19", "result": "> 100 µM (inactive)"}, {"measurement": "GI50", "setting": "NCI-H23", "result": "> 100 µM (inactive)"}, {"measurement": "GI50", "setting": "MDA-MB-435", "result": "> 100 µM (inactive)"}, {"measurement": "GI50", "setting": "HCT-116", "result": "> 100 µM (inactive)"}, {"measurement": "GI50", "setting": "K562", "result": "> 100 µM (inactive)"}, {"measurement": "GI50", "setting": "MOLT-4", "result": "> 100 µM (inactive)"}, {"measurement": "GI50", "setting": "LOX IMVI", "result": "> 100 µM (inactive)"}, {"measurement": "GI50", "setting": "M14", "result": "> 100 µM (inactive)"}, {"measurement": "GI50", "setting": "SK-MEL-5", "result": "> 100 µM (inactive)"}, {"measurement": "GI50", "setting": "MCF7", "result": "> 100 µM (inactive)"}, {"measurement": "GI50", "setting": "SNB-75", "result": "> 49.4 µM (inactive)"}, {"measurement": "GI50", "setting": "A498", "result": "> 100 µM (inactive)"}, {"measurement": "GI50", "setting": "OVCAR-5", "result": "> 100 µM (inactive)"}, {"measurement": "GI50", "setting": "HCT-15", "result": "> 100", "unit": "µM"}, {"measurement": "GI50", "setting": "OVCAR-3", "result": "> 70.8 µM (inactive)"}, {"measurement": "GI50", "setting": "SK-MEL-28", "result": "> 100 µM (inactive)"}, {"measurement": "GI50", "setting": "UACC-62", "result": "> 100 µM (inactive)"}, {"measurement": "GI50", "setting": "TK-10", "result": "> 100 µM (inactive)"}, {"measurement": "GI50", "setting": "786-0", "result": "> 100 µM (inactive)"}, {"measurement": "GI50", "setting": "Malme-3M", "result": "> 100 µM (inactive)"}, {"measurement": "GI50", "setting": "COLO 205", "result": "> 100 µM (inactive)"}, {"measurement": "GI50", "setting": "MDA-N", "result": "> 100 µM (inactive)"}, {"measurement": "GI50", "setting": "T47D", "result": "> 100 µM (inactive)"}, {"measurement": "GI50", "setting": "NCI/ADR-RES", "result": "> 100 µM (inactive)"}, {"measurement": "GI50", "setting": "HT-29", "result": "> 100 µM (inactive)"}, {"measurement": "GI50", "setting": "CAKI-1", "result": "> 100 µM (inactive)"}, {"measurement": "GI50", "setting": "RPMI-8226", "result": "> 100 µM (inactive)"}, {"measurement": "GI50", "setting": "SF-268", "result": "> 100 µM (inactive)"}, {"measurement": "GI50", "setting": "A549", "result": "> 100 µM (inactive)"}, {"measurement": "GI50", "setting": "KM12", "result": "> 100 µM (inactive)"}, {"measurement": "GI50", "setting": "SK-MEL-2", "result": "> 100 µM (inactive)"}, {"measurement": "GI50", "setting": "RXF 393", "result": "> 100 µM (inactive)"}, {"measurement": "GI50", "setting": "UACC-257", "result": "> 100 µM (inactive)"}, {"measurement": "GI50", "setting": "SK-OV-3", "result": "> 100 µM (inactive)"}, {"measurement": "GI50", "setting": "SN12C", "result": "> 100 µM (inactive)"}, {"measurement": "GI50", "setting": "CCRF-CEM", "result": "> 100 µM (inactive)"}, {"measurement": "GI50", "setting": "NCI-H226", "result": "> 100 µM (inactive)"}, {"measurement": "GI50", "setting": "DU-145", "result": "> 100 µM (inactive)"}, {"measurement": "GI50", "setting": "U-251", "result": "> 100 µM (inactive)"}, {"measurement": "GI50", "setting": "NCI-H460", "result": "> 100 µM (inactive)"}, {"measurement": "GI50", "setting": "MDA-MB-231", "result": "> 100 µM (inactive)"}, {"measurement": "GI50", "setting": "EKVX", "result": "> 100 µM (inactive)"}, {"measurement": "GI50", "setting": "HOP-62", "result": "> 63 µM (inactive)"}, {"measurement": "GI50", "setting": "OVCAR-8", "result": "> 100 µM (inactive)"}, {"measurement": "GI50", "setting": "SW-620", "result": "> 100 µM (inactive)"}, {"measurement": "GI50", "setting": "OVCAR-4", "result": "> 100 µM (inactive)"}, {"measurement": "GI50", "setting": "HL-60", "result": "> 100 µM (inactive)"}, {"measurement": "GI50", "setting": "UO-31", "result": "> 100 µM (inactive)"}]}
